According to ChEMBL document CHEMBL1201862, “PubChem BioAssay data set” (2004):
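Exposure lasted 48 hours, with cells grown in 96-well plates and compounds tested at five concentrations. GI50 marks 50% less growth.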 The source made the active and inactive calls. Rule as the data show it: active = GI50 up to about 1.1 µM and inactive = higher.

Experiments:
Assay in all cases: DTP human tumour cell line panel, 48 h
HOP-62 = tested on: HOP-62
KM12 = tested on: KM12
U-251 = tested on: U-251
LOX IMVI = tested on: LOX IMVI
OVCAR-5 = tested on: OVCAR-5
ACHN = tested on: ACHN
UACC-257 = tested on: UACC-257
M19-MEL = tested on: M19-MEL
SK-OV-3 = tested on: SK-OV-3
HCT-15 = tested on: HCT-15
OVCAR-3 = tested on: OVCAR-3
SK-MEL-2 = tested on: SK-MEL-2
NCI-H522 = tested on: NCI-H522
M14 = tested on: M14
UO-31 = tested on: UO-31
SNB-75 = tested on: SNB-75
OVCAR-4 = tested on: OVCAR-4
NCI/ADR-RES = tested on: NCI/ADR-RES
BT-549 = tested on: BT-549
DU-145 = tested on: DU-145

Row | Structure (SMILES) | GI50 (HOP-62) | GI50 (KM12) | GI50 (U-251) | GI50 (LOX IMVI) | GI50 (OVCAR-5) | GI50 (ACHN) | GI50 (UACC-257) | GI50 (M19-MEL) | GI50 (SK-OV-3) | GI50 (HCT-15) | GI50 (OVCAR-3) | GI50 (SK-MEL-2) | GI50 (NCI-H522) | GI50 (M14) | GI50 (UO-31) | GI50 (SNB-75) | GI50 (OVCAR-4) | GI50 (NCI/ADR-RES) | GI50 (BT-549) | GI50 (DU-145)
1 | OC(c1cc2ccccc2[nH]1)C(O)(c1cc2ccccc2[nH]1)c1cc2ccccc2[nH]1 (stereo not drawn) | 15.4 µM (inactive) | 8 µM (inactive) | 25.8 µM (inactive) | 10.8 µM (inactive) | 57.8 µM (inactive) | 18.6 µM (inactive) | 16.3 µM (inactive) | 7.06 µM (inactive) | 10.4 µM (inactive) | 10 µM | 4.28 µM (inactive) | 17.9 µM (inactive) | 8.61 µM (inactive) | – | – | – | – | – | – | –
2 | O=C(O)c1ccc(C2COc3ccc(Cl)cc3C2)cc1 (stereo not drawn) | > 100 µM (inactive) | > 100 µM (inactive) | > 100 µM (inactive) | > 100 µM (inactive) | > 100 µM (inactive) | > 100 µM (inactive) | > 100 µM (inactive) | > 100 µM (inactive) | > 100 µM (inactive) | > 100 µM | > 100 µM (inactive) | > 100 µM (inactive) | > 100 µM (inactive) | > 100 µM (inactive) | > 100 µM (inactive) | 31.6 µM (inactive) | – | – | – | –
3 | CC1=N/C(=C\c2ccc(N)cc2)C(=O)N1Nc1nnc(NN2C(=O)/C(=C/c3ccc(N)cc3)N=C2C)c2ccccc12 | 23.1 µM (inactive) | 37.6 µM (inactive) | 45.4 µM (inactive) | 41.9 µM (inactive) | > 100 µM (inactive) | > 100 µM (inactive) | > 100 µM (inactive) | 38.1 µM (inactive) | – | 82.2 µM | – | – | 21.3 µM (inactive) | > 100 µM (inactive) | – | 5.05 µM (inactive) | 33 µM (inactive) | – | – | –
4 | O=C1/C(=C/c2ccc(Br)cc2)CCC/C1=C\c1ccc(Br)cc1 | 20 µM (inactive) | 3.4 µM (inactive) | 7.05 µM (inactive) | – | – | 12.2 µM (inactive) | 4.2 µM (inactive) | 4.3 µM (inactive) | 56.8 µM (inactive) | 5.13 µM | 4.08 µM (inactive) | 20.9 µM (inactive) | 13.6 µM (inactive) | 3.03 µM (inactive) | 12.3 µM (inactive) | 20.6 µM (inactive) | 10.1 µM (inactive) | – | – | –
5 | CCC(=O)N1C(=S)SC[C@H]1C(=O)OC | > 100 µM (inactive) | > 100 µM (inactive) | > 100 µM (inactive) | > 100 µM (inactive) | > 100 µM (inactive) | > 100 µM (inactive) | > 100 µM (inactive) | > 100 µM (inactive) | > 100 µM (inactive) | – | > 100 µM (inactive) | – | > 100 µM (inactive) | > 100 µM (inactive) | > 100 µM (inactive) | > 100 µM (inactive) | > 100 µM (inactive) | – | – | –
6 | CCOC(=O)C(=O)Nc1ccc(C)c(C)c1 | > 100 µM (inactive) | > 53.8 µM (inactive) | > 100 µM (inactive) | > 56.1 µM (inactive) | > 100 µM (inactive) | > 100 µM (inactive) | > 100 µM (inactive) | > 67.5 µM (inactive) | > 100 µM (inactive) | > 41.2 µM | – | > 100 µM (inactive) | > 100 µM (inactive) | > 100 µM (inactive) | > 100 µM (inactive) | > 100 µM (inactive) | > 100 µM (inactive) | – | – | –
7 | CCC1(c2ccncc2)CCC(=O)NC1=O (stereo not drawn) [ROGLETIMIDE] | > 100 µM (inactive) | > 100 µM (inactive) | > 100 µM (inactive) | > 100 µM (inactive) | > 100 µM (inactive) | > 100 µM (inactive) | > 100 µM (inactive) | > 100 µM (inactive) | > 100 µM (inactive) | > 100 µM | > 100 µM (inactive) | > 100 µM (inactive) | – | > 100 µM (inactive) | > 100 µM (inactive) | > 100 µM (inactive) | > 100 µM (inactive) | – | – | –
8 | CC1C2CC=CC(=O)[C@@]2(C)CCC12OCCO2 (stereo partly drawn) | > 100 µM (inactive) | > 100 µM (inactive) | > 100 µM (inactive) | – | > 100 µM (inactive) | > 100 µM (inactive) | > 100 µM (inactive) | > 100 µM (inactive) | > 100 µM (inactive) | – | > 100 µM (inactive) | > 100 µM (inactive) | > 100 µM (inactive) | 97.1 µM (inactive) | > 100 µM (inactive) | 97.3 µM (inactive) | > 100 µM (inactive) | – | – | –
9 | O=C(CCn1[nH]c(=O)c(Cl)c(Cl)c1=O)NOCCCc1ccccc1 | > 100 µM (inactive) | > 100 µM (inactive) | – | > 100 µM (inactive) | > 100 µM (inactive) | > 100 µM (inactive) | > 100 µM (inactive) | > 100 µM (inactive) | – | > 100 µM | > 100 µM (inactive) | > 100 µM (inactive) | – | > 100 µM (inactive) | > 100 µM (inactive) | > 100 µM (inactive) | > 100 µM (inactive) | – | – | –
10 | COC(=O)C1C(=O)CC2CCCCC21 (stereo not drawn) | > 100 µM (inactive) | > 100 µM (inactive) | > 100 µM (inactive) | – | – | > 100 µM (inactive) | > 100 µM (inactive) | > 100 µM (inactive) | > 100 µM (inactive) | > 100 µM | > 100 µM (inactive) | > 100 µM (inactive) | > 100 µM (inactive) | > 100 µM (inactive) | > 100 µM (inactive) | > 100 µM (inactive) | > 100 µM (inactive) | – | – | –
11 | O=C1C=CC(CC(=O)c2ccc3ccccc3c2)O1 (stereo not drawn) | 21.5 µM (inactive) | 17.5 µM (inactive) | 18.2 µM (inactive) | 21 µM (inactive) | 25.4 µM (inactive) | 37.3 µM (inactive) | 47.6 µM (inactive) | 43.5 µM (inactive) | 68.1 µM (inactive) | 20.5 µM | 25.2 µM (inactive) | 23.8 µM (inactive) | – | 32.2 µM (inactive) | 24.3 µM (inactive) | 37.8 µM (inactive) | 24.9 µM (inactive) | – | – | –
12 | CCc1c(-c2ccc(OC)cc2)oc(OC)c(C)c1=O | > 100 µM (inactive) | > 100 µM (inactive) | > 100 µM (inactive) | 63.7 µM (inactive) | > 100 µM (inactive) | 42.3 µM (inactive) | 65.6 µM (inactive) | – | > 100 µM (inactive) | > 100 µM | 62.8 µM (inactive) | > 100 µM (inactive) | 47.4 µM (inactive) | > 100 µM (inactive) | 64.6 µM (inactive) | 33.2 µM (inactive) | 85.9 µM (inactive) | 49 µM (inactive) | 93.8 µM (inactive) | > 100 µM (inactive)
13 | CN(C)c1n/c(=N/c2ncn[nH]2)ss1 | > 100 µM (inactive) | > 100 µM (inactive) | > 100 µM (inactive) | > 100 µM (inactive) | > 100 µM (inactive) | > 100 µM (inactive) | > 100 µM (inactive) | > 100 µM (inactive) | > 100 µM (inactive) | > 100 µM | – | > 100 µM (inactive) | > 100 µM (inactive) | > 100 µM (inactive) | > 100 µM (inactive) | > 100 µM (inactive) | > 100 µM (inactive) | – | – | –
14 | CN(/N=C/c1cccc2cccnc12)c1c([N+](=O)[O-])cc([N+](=O)[O-])cc1[N+](=O)[O-] | > 100 µM (inactive) | 25.2 µM (inactive) | > 100 µM (inactive) | 45.3 µM (inactive) | > 100 µM (inactive) | > 100 µM (inactive) | > 100 µM (inactive) | > 100 µM (inactive) | > 100 µM (inactive) | 13.2 µM | > 100 µM (inactive) | > 100 µM (inactive) | – | > 100 µM (inactive) | – | > 100 µM (inactive) | > 100 µM (inactive) | – | – | –
15 | O=[N+]([O-])/C(C(Cl)=C(Cl)Cl)=C(/Br)SCc1ccccc1 | 15.5 µM (inactive) | 13.4 µM (inactive) | 4.48 µM (inactive) | 1.56 µM (inactive) | 5.71 µM (inactive) | 2.64 µM (inactive) | 3.18 µM (inactive) | – | 22 µM (inactive) | 2.07 µM | 1.86 µM (inactive) | 4.42 µM (inactive) | 1.71 µM (inactive) | 2.4 µM (inactive) | 2.45 µM (inactive) | 2.56 µM (inactive) | 3.3 µM (inactive) | 3.29 µM (inactive) | 2 µM (inactive) | 12.9 µM (inactive)
16 | O=C1/C(=C\c2cccc(Oc3ccccc3)c2)S(=O)(=O)C(c2ccccc2)N1c1ccccc1Cl (stereo not drawn) | 26.4 µM (inactive) | 27 µM (inactive) | 27.9 µM (inactive) | 29.2 µM (inactive) | 33.7 µM (inactive) | 27.8 µM (inactive) | 28.6 µM (inactive) | – | 34.2 µM (inactive) | 31.2 µM | 20.9 µM (inactive) | 26 µM (inactive) | 18.4 µM (inactive) | 28.6 µM (inactive) | 19.7 µM (inactive) | 20 µM (inactive) | 15.4 µM (inactive) | 29.4 µM (inactive) | 43.1 µM (inactive) | 36.1 µM (inactive)
17 | CCCCCCCCCCCCCCCC(=O)OCCOCCOCCOCc1ccccc1 | > 100 µM (inactive) | > 100 µM (inactive) | 41.6 µM (inactive) | > 100 µM (inactive) | > 100 µM (inactive) | > 100 µM (inactive) | > 100 µM (inactive) | > 100 µM (inactive) | – | – | > 100 µM (inactive) | > 100 µM (inactive) | – | – | – | 65.3 µM (inactive) | > 100 µM (inactive) | – | – | –
18 | O=C(O)C1CCCCC1C(=O)Nc1nc2ccccc2[nH]1 (stereo not drawn) | > 100 µM (inactive) | > 100 µM (inactive) | > 100 µM (inactive) | > 100 µM (inactive) | > 100 µM (inactive) | > 100 µM (inactive) | > 100 µM (inactive) | – | > 100 µM (inactive) | > 100 µM | > 100 µM (inactive) | > 100 µM (inactive) | > 100 µM (inactive) | > 100 µM (inactive) | > 100 µM (inactive) | > 100 µM (inactive) | > 100 µM (inactive) | > 100 µM (inactive) | > 100 µM (inactive) | > 100 µM (inactive)
